Strand notation (5' to 3'): a small letter for the sugar, then the base; units joined by * are phosphorothioate-linked, units joined directly phosphodiester-linked; [ ] holds rarer units or linkages, { } end groups; capitals alone tell only the bases. e = 2'-O-(2-methoxyethyl) (MOE); [5mC] = 5-methylcytosine; d = 2'-deoxy (DNA)
Legend:
mouse Factor 11 mRNA [1] = test: Cross-reactive antisense inhibition of murine Factor 11 in primary mouse hepatocytes, 100 nM (Example 9); type: cell-based; conditions: ~24 hours
Method: Antisense oligonucleotides targeted to a murine factor 11 nucleic acid were tested for their effects on Factor 11 mRNA in vitro. Cultured primary mouse hepatocytes at a density of 10,000 cells per well were treated with 100 nM antisense oligonucleotide. After a treatment period of approximately 24 hours, RNA was isolated from the cells and mouse Factor 11 mRNA levels were measured by quantitative real-time PCR. Factor 11 mRNA levels were adjusted according to total RNA content, as measured by RIBOGREEN. Results are presented as percent inhibition of Factor 11, relative to untreated control cells.
The chimeric antisense oligonucleotides in Tables 16 were designed as 5-10-5 MOE gapmers. The gapmers are 20 nucleotides in length, wherein the central gap segment is comprised of 10 2′-deoxynucleotides and is flanked on both sides (in the 5′ and 3′ directions) by wings comprising 5 nucleotides each. Each nucleotide in the 5′ wing segment and each nucleotide in the 3′ wing segment has a 2′-MOE modification. The internucleoside linkages throughout each gapmer are phosphorothioate (P=S) linkages. All cytidine residues throughout each gapmer are 5-methylcytidines. “Mouse target start site” indicates the 5′-most nucleotide to which the gapmer is targeted. “Mouse target stop site” indicates the 3′-most nucleotide to which the gapmer is targeted. All the mouse oligonucleotides listed show cross-reactivity between the mouse Factor 11 mRNA (GENBANK Accession No. NM_028066.1), incorporated herein as SEQ ID NO: 6 and the human Factor 11 mRNA (GENBANK Accession No. NM_000128.3), incorporated herein as SEQ ID NO: 1. “Human Target Start Site” indicates the 5′-most nucleotide in the human mRNA (GENBANK Accession No. NM_000128.3) to which the antisense oligonucleotide is targeted. “Human Target Stop Site” indicates the 3′-most nucleotide in the human mRNA (GENBANK Accession No. NM_000128.3) to which the antisense oligonucleotide is targeted. “Number of mismatches” indicates the mismatches between the mouse oligonucleotide and the human mRNA sequence.

mouse Factor 11 mRNA [2] = test: Sense-oligonucleotide antidote: Factor 11 mRNA in liver (Example 23); type: in vivo, BALB/c mice
Method: The effect of the specific sense oligonucleotide to ISIS 404071 as an antidote was tested in BALB/c mice. In a first cohort, ISIS 404071 was administered subcutaneously to BALB/c mice twice a week for three weeks at a dose of 40 mg/kg. In a second cohort, ISIS 404057 was administered subcutaneously to BALB/c mice twice a week for three weeks at a dose of 40 mg/kg. The ISIS 404071 specific antidote, ISIS 418026 ([…]; complementary to ISIS 404071), incorporated herein as SEQ ID NO: 13, was administered to both cohorts subcutaneously in a single injection of 90 mg/kg 48 hours after the final treatment of ISIS 404071 or 404057. In a third cohort, ISIS 404071 was administered subcutaneously to BALB/c mice twice a week for three weeks at a dose of 40 mg/kg. Following the last treatment of ISIS 404071, mice were injected subcutaneously injected with PBS. In a fourth cohort, ISIS 404057 was administered subcutaneously to BALB/c mice twice a week for three weeks at a dose of 40 mg/kg. Following the last treatment of ISIS 404057, mice were injected subcutaneously injected with PBS. Following antidote administration, a set of 4 mice from each cohort were sacrificed at 12 hours, 1 day, 2 days, 3 days, 7 days, and 14 days. Whole liver was collected for RNA analysis and PPP was collected for aPTT analysis.
RNA was extracted from liver tissue for real-time PCR analysis of Factor 11. Results are presented as percent inhibition of Factor 11, relative to PBS control.

blood coagulation = test: PT and aPTT assay in platelet poor plasma (Example 10); type: in vivo; conditions: BALB/c mice
Method: (§1) BALB/c mice were injected with 5 mg/kg, 10 mg/kg, 25 mg/kg, or 50 mg/kg of ISIS 404057 or ISIS 404071 twice a week for 3 weeks. A control group of mice was injected with phosphate buffered saline (PBS) twice a week for 3 weeks. Mice were sacrificed 5 days after receiving the last dose. Whole liver was harvested for RNA analysis and plasma was collected for clotting analysis (PT and aPTT) and protein analysis.
Prothrombin Time (PT) and Activated Partial Thromboplastin Time (aPTT) were measured using platelet poor plasma (PPP) from mice treated with ISIS 404057 and ISIS 404071. PT and aPTT values provided in Table 18 are reported as International Normalized Ratio (INR) values. INR values for PT and aPTT were determined by dividing the PT or aPTT value for each experimental group (i.e. 5 mg/kg, 10 mg/kg, 25 mg/kg, and 50 mg/kg treatment with ISIS 404057 or ISIS 404071) by the PT or aPTT for the PBS treated group. This ratio was then raised to the power of the International Sensitivity Index (ISI) of the tissue factor used.

murine Factor 11 mRNA = test: In vivo antisense inhibition of murine Factor 11 mRNA in liver (Example 10); conditions: BALB/c mice, relative to PBS control
Method: as §1
RNA was extracted from liver tissue for real-time PCR analysis of Factor 11. […] Results are presented as percent inhibition of Factor 11, relative to control.

[3] = mouse, in vivo, sc, 50 mg/kg
[4] = mouse, in vivo, sc, 50 mg/kg; remark: listed apart in the source
[5] = mouse, in vivo, sc, 50 mg/kg; remark: listed apart in the source
[6] = Collagenase-induced intracerebral hemorrhage model: hemorrhage volume, neurologic deficit score, mortality (Example 25); type: in vivo, BALB/c mice
Method: In a first cohort, ISIS 404071 was administered subcutaneously to BALB/c mice twice a week for two weeks at a dose 40 mg/kg. […] In a third cohort, ISIS 421208 ([…], 8 mismatches to murine Factor 11, incorporated herein as SEQ ID NO: 14) was administered subcutaneously to BALB/c mice twice a week for two weeks at a dose 40 mg/kg. In a fourth cohort, PBS was administered to BALB/c mice twice a week for two weeks.
Two days after receiving their final dose, all mice in all cohorts were anesthetized with […] of avertin. Next, the mice were injected at −1 mm AP, 1 mm R ML, −4 mm DV from bregma flat skull with a 10 μL Hamilton syringe containing 0.075 U collagenase (150 U/mL). Collagenase was delivered over 5 minutes and the needle was kept in place for an additional 5 minutes to prevent reflux. The mice were then analyzed for hemorrhagic size, neurologic deficit score, and mortality.
Table 37 presents the hemorrhage volume detected in mice after collagenase treatment, Table 38 presents the neurologic deficit score of the mice, and Table 39 presents the mortality rate of the mice. Neurological deficit is measured by a standard scoring system where no deficiency is zero and severe deficit is five.

[7] = 5 mg/kg twice a week for 3 weeks
[8] = 10 mg/kg twice a week for 3 weeks
[9] = 25 mg/kg twice a week for 3 weeks
[10] = 50 mg/kg twice a week for 3 weeks
[11] = 5-50 mg/kg twice a week for 3 weeks

Question: With “404054 (eT*eA*eG*eT*eT*d[5mC]*dA*dT*dG*d[5mC]*d[5mC]*d[5mC]*dT*dT*d[5mC]*eA*eT*eG*eT*e[5mC]; antisense) [compound 404054]” as the substance, how does the “% Inhibition of mouse Factor 11 mRNA levels” value (mouse Factor 11 mRNA [1]) read?
Answer: 45%

Question: Which “Percent inhibition of mouse Factor 11 mRNA compared to PBS control” value (mouse Factor 11 mRNA [2]; 3 days after antidote/PBS, antisense 40 mg/kg s.c. twice a week for three weeks, ISIS 418026 90 mg/kg single injection where given) does the source give for “ISIS 404057: antisense oligonucleotide targeted to murine Factor 11 mRNA, TCCTGGCATTCTCGAGCATT, target start site 487 (antisense eT*e[5mC]*e[5mC]*eT*eG*dG*d[5mC]*dA*dT*dT*d[5mC]*dT*d[5mC]*dG*dA*eG*e[5mC]*eA*eT*eT)” here?
Answer: 95%

Question: And the “PT INR” value (blood coagulation; [7])?
Answer: 1.00

Question: And the “aPTT INR” value (blood coagulation; [7])?
Answer: 1.07

Question: What about the “PT INR” value (blood coagulation; [8]) of the same substance?
Answer: 0.94

Question: And the “aPTT INR” value (blood coagulation; [8])?
Answer: 1.19

Question: What about the “PT INR” value (blood coagulation; [9]) of the same substance?
Answer: 1.02

Question: What about the “aPTT INR” value (blood coagulation; [9]) of the same substance?
Answer: 1.27

Question: What about the “PT INR” value (blood coagulation; [10]) of the same substance?
Answer: 1.00

Question: And the “aPTT INR” value (blood coagulation; [10])?
Answer: 1.37

Question: And the “PT” value (blood coagulation; [11])?
Answer: not significantly prolonged

Question: What about the “aPTT” value (blood coagulation; [11]) of the same substance?
Answer: prolonged in a dose-dependent manner

Question: Which “% inhibition of murine Factor 11 mRNA” value (murine Factor 11 mRNA; [7]) does the source give for “404057 (eT*e[5mC]*e[5mC]*eT*eG*dG*d[5mC]*dA*dT*dT*d[5mC]*dT*d[5mC]*dG*dA*eG*e[5mC]*eA*eT*eT) [compound 404057]” here?
Answer: 40%

Question: What about the “% inhibition of murine Factor 11 mRNA” value (murine Factor 11 mRNA; [8]) of the same substance?
Answer: 64%

Question: And the “% inhibition of murine Factor 11 mRNA” value (murine Factor 11 mRNA; [9])?
Answer: 85%

Question: And the “% inhibition of murine Factor 11 mRNA” value (murine Factor 11 mRNA; [10])?
Answer: 95%

Question: Which “% Inhibition of mouse Factor 11 mRNA levels” value (mouse Factor 11 mRNA [1]) does the source give for “404089 (antisense eT*eG*eA*eA*eT*dT*dA*dT*d[5mC]*dA*dT*dT*dT*d[5mC]*dT*eT*eG*eA*eA*e[5mC]) [compound 404089]” here?
Answer: 6%

Question: For “404083 (antisense eT*eG*eT*eG*e[5mC]*dA*dG*dA*dG*dT*d[5mC]*dA*d[5mC]*d[5mC]*dT*eG*e[5mC]*e[5mC]*eA*eT) [compound 404083]”, which “% Inhibition of mouse Factor 11 mRNA levels” value (mouse Factor 11 mRNA [1]) is on record?
Answer: 47%

Question: For “404090 (antisense eT*eG*eA*eT*e[5mC]*dA*dT*dG*dA*dA*dT*dT*dA*dT*d[5mC]*eA*eT*eT*eT*e[5mC]) [compound 404090]”, which “% Inhibition of mouse Factor 11 mRNA levels” value (mouse Factor 11 mRNA [1]) is on record?
Answer: 42%

Question: Which “% Inhibition of mouse Factor 11 mRNA levels” value (mouse Factor 11 mRNA [1]) does the source give for “404066 (eA*eA*eT*eG*eT*d[5mC]*d[5mC]*d[5mC]*dT*dG*dA*dT*dA*d[5mC]*dA*eA*eG*e[5mC]*e[5mC]*eA; antisense) [compound 404066]” here?
Answer: 37%

Question: With “404071 (antisense eT*eG*eG*eT*eA*dA*dT*d[5mC]*d[5mC]*dA*d[5mC]*dT*dT*dT*d[5mC]*eA*eG*eA*eG*eG) [compound 404071]” as the substance, how does the “% inhibition of murine Factor 11 mRNA” value (murine Factor 11 mRNA; [7]) read?
Answer: 72%

Question: And the “% inhibition of murine Factor 11 mRNA” value (murine Factor 11 mRNA; [8])?
Answer: 82%

Question: And the “% inhibition of murine Factor 11 mRNA” value (murine Factor 11 mRNA; [9])?
Answer: 93%

Question: What about the “% inhibition of murine Factor 11 mRNA” value (murine Factor 11 mRNA; [10]) of the same substance?
Answer: 96%

Question: Which “inhibition of Factor 11 mRNA expression in ISIS 404057 treated mice” value (mouse Factor 11 mRNA [2]; BALB/c mice, ISIS 404057 40 mg/kg then ISIS 418026 90 mg/kg) does the source give for “ISIS 418026: ISIS 404071 specific antidote, CCTCTGAAAGTGGATTACCA; complementary to ISIS 404071 (listed as DNA, chemistry not given here)” here?
Answer: had no effect on inhibition of Factor 11 mRNA expression

Question: Which “% Inhibition of mouse Factor 11 mRNA levels” value (mouse Factor 11 mRNA [1]) does the source give for “404067 (antisense eG*eG*eG*eA*eA*dA*dA*dT*dG*dT*d[5mC]*d[5mC]*d[5mC]*dT*dG*eA*eT*eA*e[5mC]*eA) [compound 404067]” here?
Answer: 39%

Question: With “404087 (antisense eT*eT*e[5mC]*eT*eT*dG*dA*dA*d[5mC]*d[5mC]*d[5mC]*dT*dG*dA*dA*eG*eA*eA*eA*eG) [compound 404087]” as the substance, how does the “% Inhibition of mouse Factor 11 mRNA levels” value (mouse Factor 11 mRNA [1]) read?
Answer: 29%

Question: Which results are given for “ISIS 445532: 5-8-5 or 6-8-6 MOE microwalk gapmer (Table 44) (antisense CGGCATTGGTGCACAGTT; sugars from the 5' end e5 d8 e5, backbone and methylation of C not given here)”?
Answer: HCT [3]: 48%; Lymphocyte [3]: 5490; Neutrophil [3]: 1116; Platelets [3]: 689; RBC [3]: 9.7; WBC [3]: 7; hemoglobin [3]: 14.8 g/dL; ALT [4]: 395 IU/L; AST [4]: 360 IU/L; Albumin [4]: 2.9; Bilirubin [4]: 0.20 mg/dL; BUN [5]: 23 mg/dL

Question: Which “% Inhibition of mouse Factor 11 mRNA levels” value (mouse Factor 11 mRNA [1]) does the source give for “404050 (eT*eG*e[5mC]*eT*eT*dG*dA*dA*dG*dG*dA*dA*dT*dA*dT*e[5mC]*e[5mC]*eA*eG*eA; antisense) [compound 404050]” here?
Answer: 82%

Question: Which “Hemorrhagic volume after collagenase treatment” value ([6]; 40 mg/kg s.c. twice a week for two weeks) does the source give for “ISIS 421208: TCGGAAGCGACTCTTATATG, 8 mismatches to murine Factor 11 (listed as DNA, chemistry not given here) [reference compound]” here?
Answer: 41 mm^3

Question: What about the “Neurologic Deficit Score after collagenase treatment” value ([6]; 40 mg/kg s.c. twice a week for two weeks, score zero (no deficiency) to five (severe deficit)) of the same substance?
Answer: 2.0

Question: What about the “% mortality after collagenase treatment” value ([6]; ISIS oligonucleotides 40 mg/kg s.c., warfarin 2 mg/kg intraperitoneally, twice a week for two weeks) of the same substance?
Answer: 0%

Question: Which “% Inhibition of mouse Factor 11 mRNA levels” value (mouse Factor 11 mRNA [1]) does the source give for “404055 (eT*eG*eT*eT*eA*dT*dA*dG*dT*dT*d[5mC]*dA*dT*dG*d[5mC]*e[5mC]*e[5mC]*eT*eT*e[5mC]; antisense) [compound 404055]” here?
Answer: 27%
